In patent US5614539A, “Urea compounds which are useful as platelet aggregation inhibitors” (G. D. Searle & Co., priority 1995, dated 1997):

Test system: Dog PRP (platelet aggregation)
Assay: In-Vitro Platelet Aggregation in PRP (ADP-induced)
Format: cell-based
Details: Canis lupus familiaris; dog platelet-rich plasma; ADP 50 um final concentration; 1 minute preincubation at 37° C.; read-out: Dog PRP IC50 or % Inh.
Protocol: In-Vitro Platelet Aggregation in PRP
Healthy male or female dogs were fasted for 8 hours prior to drawing blood; then 30 ml whole blood was collected using a butterfly needle and 30 cc plastic syringe with 3 ml of 0.129M buffered sodium citrate (3.8%). The syringe was rotated carefully as blood was drawn to mix the citrate. Platelet-rich plasma (PRP) was prepared by centrifugation at 975×g for 3.17 minutes at room temperature allowing the centrifuge to coast to a stop without braking. The PRP was removed from the blood with a plastic pipette and placed in a plastic capped, 50 mL Corning conical sterile centrifuge tube which was held at room temperature. Platelet poor plasma (PPP) was prepared by centrifuging the remaining blood at 2000×g for 15 minutes at room temperature allowing the centrifuge to coast to a stop without braking. The PRP was adjusted with PPP to a count of 2-3×10^8 platelets per mL. 400 uL of the PRP preparation and 50 uL of the compounds solution to be tested or saline were preincubated for 1 minute at 37° C. in a […].). 50 uL of adenosine 5' diphosphate (ADP) (50 um final concentration) was added to the cuvettes and the aggregation was monitored for 1 minute. […] Results are calculated as follows: Percent of control=[(maximal OD minus initial OD of compound) divided by (maximal OD minus initial OD of control saline)]×100. […]

Structure (SMILES)	IC50 [µM]
N=C(N)NCCCCCCCNC(=O)NC(CC(=O)O)c1cccnc1 (stereo not drawn) [Example 2, β-[[[[7-[[aminoiminomethyl]amino]heptyl]amino]carbonyl]amino]-3-pyridinepropanoic acid]	0.8
N=C(N)NCCCCCCCNC(=O)N[C@@H](CC(=O)O)C(=O)N[C@@H](Cc1ccccc1)C(=O)O [Example 4, N-[N-[[[[7-[[aminoiminomethyl]amino]heptyl]amino]carbonyl]amino]-L-α-aspartyl]-L-phenylalanine]	1.9
